This is an account of results in US20170045513A1, “METHODS OF DIAGNOSING CELIAC DISEASE USING IP-10” (ImmusanT, Inc., priority 2014, published 2017).

Holding throughout (format): cell-based, human
The test system of assay [1] is gluten-reactive T cells. The assay is described as follows: Cytokine release assays taken together (IFNγ ELISpot, whole blood IFNγ and IP-10, in-tube IFNγ ELISA). To be noted: HLA-DQ2.5+ celiac disease subjects after gluten challenge. The protocol:
Gluten peptide solutions for addition to whole blood were arranged according to standardized templates in sterile 96-well U-bottom plates (30 μL/well). Plates were sealed with adhesive ELISA plate cover slips before the plastic lid was replaced and being frozen at −80° C. Whole blood assay (WBA) “medium” (1% DMSO in 90% PBS and 9% normal saline), mitogen (PHA-L, Sigma-Aldrich #L2769; St Louis Mo.) 100 μg/ml in WBA medium, and CEF diluted to 10 μg/ml in PBS with a final concentration of 1% DMSO were frozen separately in sterile cryovials. 96-well plates and cryovials with frozen incubation solutions were shipped on dry ice to the clinical site where blood was collected and incubations performed. Solutions were thawed at room temperature for 10 min just before being added to whole blood. 96-well plates were thawed while being centrifuged at 300 g to avoid surface condensation. A multi-channel pipette was used to efficiently transfer 25 μL of peptide solutions from the original 96-well plate to corresponding wells in a fresh sterile 96-well U-bottom plate. Once incubation solutions had been added, 225 μL of whole blood was added to each well and the plate transferred to incubate for 24 h at 37° C. 5% CO2. […] Individual peptides were incubated at a final assay concentration of 51.1M. Final concentrations of individual peptides assessed in P3 was 0.05-50 μg/mL, and in P14 and P13 pools 0.025-25 μM. The P71 pool was tested at between 0.005-10 pg/mL, the highest tested concentration being the maximal possible not exceeding 0.1% DMSO. Peptide pools, mitogen, and medium only were assessed in triplicate wells, and on Day-6 individual peptides were assessed in duplicate wells. Incubations were terminated after 24 h, and 96-well plates centrifuged at 300 g for 10 min. A total of approximately 90 to 120 μL of plasma was removed from each well taking care to avoid red cell contamination, and transferred into corresponding wells of two further 96-well plates (one with 30 μL/well and the residual in the second plate). Plasmas were frozen at −80° C. and later shipped on dry ice to the central lab where IP-10 and IFNγ multiplex bead assays were performed according to manufacturer's instructions using 25 μL plasma per well (Milliplex® MAP Human Cytokine/Chemokine Magnetic Bead Panel #HCYTOMAG-60k-02; EMD Millipore Corp., Billerica, Mass. 01821) and analysed with the Luminex® MAGPIX® System xPONENT® software (Luminex Corporation, Austin Tex. 78727). Plasma cytokine levels for each assay condition were expressed as the mean analyte concentration of each of the three replicate incubations. Laboratory staff were unaware of the arrangement of peptide solutions incubated with during assay setup and plate counting.
Aliquots of PBS, P3 peptides diluted in PBS (final concentration in blood 3× 50 or CEF to a final concentration 1 μg/mL were prepared in sterile cryovials (0.11 mL/vial) and stored frozen (−80° C.) until immediately before use. P3, CEF and two PBS aliquots were drawn up in separate sterile 0.3 mL insulin syringes with attached 29G×½″ needle (Terumo, SS*30M2913; Elkton Md. 21921). P3, CEF and one PBS aliquot was injected through the stoppers of three separate QuantiFERON® NIL tubes already containing 1 mL blood, and one aliquot of PBS was injected into a QuantiFERON® MITOGEN tube already containing 1 mL blood. All four tubes containing blood and incubation solution were gently inverted ten-times and transferred to incubate at 37° C. 5% CO2. After for 24 h, tubes were centrifuged 300 g 10 min. Plasma was separated and equal volumes placed in two 1.5 mL cryovials. Frozen plasmas were transferred to the central lab where IFNγ levels were measured in triplicate 50 μL samples by ELISA (MABtech Human IFN-γ ELISA development kit HRP, 3420-1H-6; capture mAb 1-D1K). […]
In general terms: ELISA stands for enzyme-linked immunosorbent assay.

The test system of assay [2] is gluten-reactive T cells. The assay is described as follows: 96-well plate whole blood cytokine release, IP-10 by MAGPIX multiplex bead assay. The settings on record: for Percent of maximal response to individual gluten peptides, IP-10: after oral gluten challenge.
Assay [3] has as its system gluten-reactive T cells. Description: Overnight IFNγ ELISpot assay with fresh PBMC. The settings on record: for Percent of maximal response to individual gluten peptides, ELISp: after oral gluten challenge. As to the method: HLA-DQ2.5-positive celiac disease subjects on gluten-free diet were used in this study. Blood was collected immediately before and 6 days after commencing 3-day oral gluten challenge. Whole blood or PBMCs were incubated with pools or single peptides derived from gluten or recall antigens. IFNγ and IP-10 levels were measured in plasma from the whole blood that was incubated in 96-well plates with peptides or peptide pools. Plasma cytokine/chemokine levels were measured by MAGPIX® multiplex bead assay (IFNγ and IP-10) or by ELISA (IFNγ and IP-10), and PBMC separated from the same blood sample were incubated in overnight IFNγ ELISpot assays.
Overnight IFNγ ELISpot assays (Human IFN-γ ELISpotPRO kit, transparent, ALP; Mabtech AB, #3420-2APT-10) were performed using PBMC freshly separated from heparinized blood diluted 1:1 in PBS with 2% fetal bovine serum (Stemcell Technologies #07905; Vancouver, BC, V5Z 1B3, Canada) overlaid on density gradient medium (Ficoll-Paque™ PLUS; GE Healthcare Lice Sciences #:17-1440-02) in SepMate™-50 tubes (Stemcell Technologies #15460). PBMC (8 million/mL) were resuspended in serum-free medium with gentamicin and phenol red (X-VIVO™15; Lonza, Walkersville Mass. 21793). PBMC (0.4 million/50 pt/well) and incubated with 50 μL 80% X-vivo15, 0.2% DMSO and 20% PBS in three triplicate wells (“medium only”), or with 50 μL PHA-L 20 μg/ml or peptide at 2× final concentration in 80% X-vivo15, 0.2% DMSO and 20% PBS. Peptide solutions to be added to individual ELISpot wells were prepared in 96-well U-bottom plates (60 pt/well) that were then sealed with adhesive ELISA plate cover slips before replacing the plastic lid and being frozen at −80° C. 96-well plates containing peptide solutions were thawed at room temperature for 10 min while being centrifuged at 300 g immediately prior to being added to ELISpot wells. Peptide pools and mitogen were assessed in triplicate wells, and individual peptides were assessed in duplicate wells. X-VIVO™15 (50 μL) was incubated with 80% X-vivo15, 0.2% DMSO and 20% PBS (50 μL) in triplicate wells (“no PBMC” control). A Zeiss automated ELISpot counter was used to determine spot forming units (SFU) per well (Zellnet Inc., Fort Lee, N J 07024). Laboratory staff were unaware of the arrangement of peptide solutions in ELISpot wells during assay setup and plate counting.

In assay [4] the test system is gluten-reactive T cells. Description: 96-well plate whole blood cytokine release, IFNγ by MAGPIX multiplex bead assay. To be noted: for Percent of maximal response to individual gluten peptides, IFNg: after oral gluten challenge.

Non-standard residues stand in square brackets, D forms with d. pGlu = O=C1CC[C@@H](C(=O)O)N1

As for “(pE)GQQGYYPTSPQQSG-amide ([pGlu]GQQGYYPTSPQQSG-NH2; SMILES C[C@@H](O)[C@H](NC(=O)[C@@H]1CCCN1C(=O)[C@H](Cc1ccc(O)cc1)NC(=O)[C@H](Cc1ccc(O)cc1)NC(=O)CNC(=O)[C@H](CCC(N)=O)NC(=O)[C@H](CCC(N)=O)NC(=O)CNC(=O)[C@@H]1CCC(=O)N1)C(=O)N[C@@H](CO)C(=O)N1CCC[C@H]1C(=O)N[C@@H](CCC(N)=O)C(=O)N[C@@H](CCC(N)=O)C(=O)N[C@@H](CO)C(=O)NCC(N)=O) [Peptide 10]”, the “cytokine release / immunogenicity of individual peptide” value in the assay with gluten-reactive T cells [1] is “weak or not distinguishable from medium alone”. In addition, the “Percent of maximal response to individual gluten peptides, IP-10” value is 0 % of max with gluten-reactive T cells [2] (Subject 1, Max. 2331 pg/mL); 0 % of max with gluten-reactive T cells [2] (Subject 2, Max. 3646 pg/mL); 0 % of max with gluten-reactive T cells [2] (Subject 3, Max. 9492 pg/mL); 0 % of max in the assay on gluten-reactive T cells [2] (Subject 4, Max. 9463 pg/mL); 0 % of max in the assay on gluten-reactive T cells [2] (Subject 6, Max. 5863 pg/mL); 0 % of max with gluten-reactive T cells [2] (Subject 7, Max. 2330 pg/mL). Further, the “Percent of maximal response to individual gluten peptides, IP-10” value in the assay on gluten-reactive T cells [2] (Subject 10, Max. 8922 pg/mL) is 9 % of max. The “IP-10 WB MAGPIX % max Mean” value in the assay on gluten-reactive T cells [2] (n = 10, blood after oral gluten challenge, individual peptides 5 μM (Peptide 2* of P14, Pepscan: 10 μg/mL (5.45 μM))) turned out to be 1 % max. In addition, the “Percent of maximal response to individual gluten peptides, ELISp” value with gluten-reactive T cells [3] (Subject 3, Max. 18 SFU) is 17 % of max; in the assay on gluten-reactive T cells [3] (Subject 4, Max. 36 SFU), 3 % of max; in the assay with gluten-reactive T cells [3] (Subject 8, Max. 17 SFU), 0 % of max; with gluten-reactive T cells [3] (Subject 10, Max. 11 SFU), 9 % of max. In addition, the “IFNγ ELISpot % max Mean” value in the assay on gluten-reactive T cells [3] (n = 5, blood after oral gluten challenge, individual peptides 5 μM (Peptide 2* of P14, Pepscan: 10 μg/mL (5.45 μM))) is listed as 8 % max. In addition, the “Percent of maximal response to individual gluten peptides, IFNg” value with gluten-reactive T cells [4] (Subject 2, Max. 116 pg/mL) is 23 % of max; in the assay with gluten-reactive T cells [4] (Subject 3, Max. 799 pg/mL), 0 % of max; with gluten-reactive T cells [4] (Subject 4, Max. 136 pg/mL), 0 % of max; in the assay on gluten-reactive T cells [4] (Subject 6, Max. 72 pg/mL) it was 0 % of max; with gluten-reactive T cells [4] (Subject 7, Max. 17 pg/mL), 0 % of max; with gluten-reactive T cells [4] (Subject 8, Max. 47 pg/mL), 0 % of max. For the same substance, the “Percent of maximal response to individual gluten peptides, IFNg” value in the assay on gluten-reactive T cells [4] (Subject 9, Max. 67 pg/mL) is on record as 0 % of max; with gluten-reactive T cells [4] (Subject 10, Max. 229 pg/mL), 9 % of max. In addition, the “IFNγ WB MAGPIX % max Mean” value in the assay on gluten-reactive T cells [4] (n = 8, blood after oral gluten challenge, individual peptides 5 μM (Peptide 2* of P14, Pepscan: 10 μg/mL (5.45 μM))) came to 4 % max.
